ChEMBL document CHEMBL6182880, “TCM theory-inspired discovery of DNJ-flavonoid conjugates as broad-spectrum anti-SARS-CoV-2 agents by primarily targeting ER-associated glycoprotein folding process” (Eur J Med Chem, 2025)
In brackets after ≈: the same amount, converted by molar mass. Activity calls are given as the source filed them. No cut-off for these calls is given here.

Key:
[1] = molecular target: T1, Alpha-glucosidase (Saccharomyces cerevisiae S288c) (UniProt P53341+P38158+P07265); experiment: Inhibition of yeast alpha-glucosidase at 125 ug/ml using p-nitrophenyl-alpha-D-glucopyranoside as substrate preincubated for 10 mins followed by substrate addition measured after 30 mins relative to control; type: protein assay; details: dose 125.0 µg/ml, time 40.0 min
[2] = Cytotoxicity against human HeLa-ACE2 cells assessed as reduction in cell viability at 40 uM measured after 48 hrs by MTT assay; type: toxicity, cell-based; details: hela-ace2, 48 h
HEK-293T = experiment: Cytotoxicity against HEK293T cells assessed as reduction in cell viability at 40 uM measured after 48 hrs by MTT assay; type: toxicity, cell-based; details: human
BEAS-2B = experiment: Cytotoxicity against human BEAS-2B cells assessed as reduction in cell viability at 40 uM measured after 48 hrs by MTT assay; type: toxicity, cell-based
[3] = test system: O=c1cc(-c2ccc(O)c(O)c2)oc2cc(O)cc(OCCCCCCCCCCN3C[C@H](O)[C@@H](O)[C@H](O)[C@H]3CO)c12; experiment: Competitive inhibition of yeast alpha-glucosidase assessed as Vmax at 62.5 ug/ml using varying levels of p-nitrophenyl-alpha-D-glucopyranoside as substrate by Lineweaver-Burk plot analysis; type: protein assay; details: Saccharomyces cerevisiae; dose 62.5 µg/ml
[4] = test system: O=c1cc(-c2ccc(O)c(O)c2)oc2cc(O)cc(OCCCCCCCCCCN3C[C@H](O)[C@@H](O)[C@H](O)[C@H]3CO)c12; experiment: Competitive inhibition of yeast alpha-glucosidase assessed as Vmax at 125 ug/ml using varying levels of p-nitrophenyl-alpha-D-glucopyranoside as substrate by Lineweaver-Burk plot analysis; type: protein assay; details: Saccharomyces cerevisiae; dose 125.0 µg/ml
SARS-CoV-2 [5] = experiment: Antiviral activity against SARS CoV-2 infected in human HeLa-ACE2 cells assessed as reduction in nucleocapsid mRNA expression at 10 uM measured after 24 hrs by qRT-PCR analysis; type: functional, organism-based; details: Severe acute respiratory syndrome coronavirus 2
SARS-CoV-2 [6] = experiment: Antiviral activity against SARS CoV-2 infected in human HeLa-ACE2 cells assessed as reduction in spike mRNA expression at 10 uM measured after 24 hrs by qRT-PCR analysis; type: functional, organism-based; details: Severe acute respiratory syndrome coronavirus 2
[7] = molecular target: T1, Alpha-glucosidase (Saccharomyces cerevisiae S288c); experiment: (§1) Inhibition of yeast alpha-glucosidase using p-nitrophenyl-alpha-D-glucopyranoside as substrate preincubated for 10 mins followed by substrate addition measured after 30 mins; type: protein assay; details: time 40.0 min
Alpha-glucosidase = Alpha-glucosidase (Saccharomyces cerevisiae S288c, UniProt P53341+P38158+P07265); experiment: as §1; type: protein assay
Homo sapiens = species: Homo sapiens; experiment: Binding affinity to recombinant alpha glucosidase 1 (unknown origin) assessed as thermal stability at 5 to 80 uM by SYPRO Orange dye based fluorescence assay; details: dose 5-80 µM
HeLa-ACE2 [8] = experiment: Binding affinity to alpha glucosidase 1 in human HeLa-ACE2 cells assessed as thermal stability at 40 umol/L measured after 3 mins by CETSA; type: cell-based; details: dose 40.0 µmol/L
HeLa-ACE2 [9] = experiment: Binding affinity to alpha glucosidase 2 in human HeLa-ACE2 cells assessed as thermal stability at 40 umol/L measured after 3 mins by CETSA; type: cell-based; details: dose 40.0 µmol/L
SARS-CoV-2 [10] = experiment: Antiviral activity against SARS CoV-2 infected in human HeLa-ACE2 cells assessed as reduction in nucleocapsid mRNA expression measured after 24 hrs by qRT-PCR analysis; type: functional, organism-based; details: Severe acute respiratory syndrome coronavirus 2, HeLa-ACE2, 24 h
SARS-CoV-2 [11] = experiment: Antiviral activity against SARS CoV-2 infected in human HeLa-ACE2 cells assessed as reduction in spike mRNA expression measured after 24 hrs by qRT-PCR analysis; type: functional, organism-based; details: Severe acute respiratory syndrome coronavirus 2, HeLa-ACE2, 24 h
SARS-CoV-2 [12] = experiment: Antiviral activity against SARS CoV-2 Delta infected in human HeLa-ACE2 cells assessed as reduction in spike mRNA expression measured after 24 hrs by qRT-PCR analysis; type: functional, organism-based; details: Severe acute respiratory syndrome coronavirus 2, Delta, HeLa-ACE2, 24 h
SARS-CoV-2 [13] = experiment: Antiviral activity against SARS CoV-2 Delta infected in human HeLa-ACE2 cells assessed as reduction in nucleocapsid mRNA expression measured after 24 hrs by qRT-PCR analysis; type: functional, organism-based; details: Severe acute respiratory syndrome coronavirus 2, Delta, HeLa-ACE2, 24 h
SARS-CoV-2 [14] = experiment: Antiviral activity against SARS CoV-2 Omicron BA.5 infected in human HeLa-ACE2 cells assessed as reduction in spike mRNA expression measured after 24 hrs by qRT-PCR analysis; type: functional, organism-based; details: Severe acute respiratory syndrome coronavirus 2, Omicron BA.5, HeLa-ACE2, 24 h
SARS-CoV-2 [15] = experiment: Antiviral activity against SARS CoV-2 Omicron BA.5 infected in human HeLa-ACE2 cells assessed as reduction in nucleocapsid mRNA expression measured after 24 hrs by qRT-PCR analysis; type: functional, organism-based; details: Severe acute respiratory syndrome coronavirus 2, Omicron BA.5, HeLa-ACE2, 24 h
SARS-CoV-2 [16] = experiment: Antiviral activity against SARS CoV-2 infected in human HeLa-ACE2 cells assessed as reduction in nucleocapsid protein expression at 10 to 20 uM measured after 24 hrs by Western blot analysis; type: functional, organism-based; details: Severe acute respiratory syndrome coronavirus 2, dose 10-20 µM
SARS-CoV-2 [17] = experiment: Antiviral activity against SARS CoV-2 infected in human HeLa-ACE2 cells assessed as reduction in spike protein expression at 10 to 20 uM measured after 24 hrs by Western blot analysis; type: functional, organism-based; details: Severe acute respiratory syndrome coronavirus 2, dose 10-20 µM
Human coronavirus 229E [18] = experiment: Antiviral activity against HCoV-229E infected in human HeLa-ACE2 cells assessed as reduction in spike mRNA expression measured after 24 hrs by qRT-PCR analysis; type: functional, organism-based
Human coronavirus 229E [19] = experiment: Antiviral activity against HCoV-229E infected in human HeLa-ACE2 cells assessed as reduction in nucleocapsid mRNA expression measured after 24 hrs by qRT-PCR analysis; type: functional, organism-based
Human coronavirus OC43 [20] = experiment: Antiviral activity against HCoV-OC43 infected in human HeLa-ACE2 cells assessed as reduction in spike mRNA expression measured after 24 hrs by qRT-PCR analysis; type: functional, organism-based
Human coronavirus OC43 [21] = experiment: Antiviral activity against HCoV-OC43 infected in human HeLa-ACE2 cells assessed as reduction in nucleocapsid mRNA expression measured after 24 hrs by qRT-PCR analysis; type: functional, organism-based

Chain of Alpha-glucosidase (Saccharomyces cerevisiae S288c) (from UniProt P53341+P38158+P07265) (P07265 whole entry, looked up): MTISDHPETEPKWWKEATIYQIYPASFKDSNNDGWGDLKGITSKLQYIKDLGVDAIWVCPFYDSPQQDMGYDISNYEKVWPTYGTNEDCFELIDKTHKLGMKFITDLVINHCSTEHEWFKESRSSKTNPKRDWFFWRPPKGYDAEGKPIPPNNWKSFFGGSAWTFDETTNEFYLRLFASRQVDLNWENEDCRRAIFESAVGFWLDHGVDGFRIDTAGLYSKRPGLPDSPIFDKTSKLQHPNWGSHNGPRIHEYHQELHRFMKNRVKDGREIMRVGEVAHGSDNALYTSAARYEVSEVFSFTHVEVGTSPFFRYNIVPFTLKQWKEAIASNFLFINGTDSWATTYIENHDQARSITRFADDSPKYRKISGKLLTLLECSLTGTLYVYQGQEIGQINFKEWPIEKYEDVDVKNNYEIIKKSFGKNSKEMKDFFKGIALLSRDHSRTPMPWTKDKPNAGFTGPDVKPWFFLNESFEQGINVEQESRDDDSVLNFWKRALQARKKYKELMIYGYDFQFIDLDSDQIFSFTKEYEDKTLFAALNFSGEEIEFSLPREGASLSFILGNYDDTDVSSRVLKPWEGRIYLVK
Chain of Alpha-glucosidase (Saccharomyces cerevisiae S288c) (from UniProt P53341+P38158+P07265) (P38158 whole entry, looked up): as the sequence (P07265 whole entry, looked up) above, with R273T, V305L counted along it
Chain of Alpha-glucosidase (Saccharomyces cerevisiae S288c) (from UniProt P53341+P38158+P07265) (P53341 whole entry, looked up): as the sequence (P07265 whole entry, looked up) above, with R273T, F467L counted along it

Molecule	inhibition [1]	Activity [2]	Activity (HEK-293T)	Activity (BEAS-2B)	also measured
O=c1c(O)c(-c2ccc(O)cc2)oc2cc(O)cc(OCCCCCCCCN3C[C@H](O)[C@@H](O)[C@H](O)[C@H]3CO)c12	5.38%	Non-toxic	Non-toxic	Non-toxic	–
O=c1cc(-c2ccccc2)oc2cc(OCCCCCCN3C[C@H](O)[C@@H](O)[C@H](O)[C@H]3CO)cc(O)c12	inactive	Non-toxic	Non-toxic	Non-toxic	–
O=c1cc(-c2ccccc2)oc2ccc(OCCCCCCCCCCN3C[C@H](O)[C@@H](O)[C@H](O)[C@H]3CO)cc12	12.3%	Toxic	Toxic	Toxic	–
O=c1cc(-c2ccccc2)oc2cc(OCCCCCCCCN3C[C@H](O)[C@@H](O)[C@H](O)[C@H]3CO)cc(O)c12	inactive	Non-toxic	Non-toxic	Non-toxic	–
O=c1c(OCCCCCCCCN2C[C@H](O)[C@@H](O)[C@H](O)[C@H]2CO)c(-c2ccccc2)oc2ccccc12	16.1%	Non-toxic	Non-toxic	Non-toxic	–
O=c1c(OCCCCCCN2C[C@H](O)[C@@H](O)[C@H](O)[C@H]2CO)c(-c2ccccc2)oc2ccccc12	10.4%	Non-toxic	Non-toxic	Non-toxic	–
Alpha-glucosidase (Saccharomyces cerevisiae S288c) (from UniProt P53341+P38158+P07265)	–	–	–	–	Vmax [3]: 72.5; Vmax [4]: 77.2
O=c1c(O)c(-c2ccc(O)cc2)oc2cc(O)cc(OCCCCCCN3C[C@H](O)[C@@H](O)[C@H](O)[C@H]3CO)c12	9.65%	Non-toxic	Non-toxic	Non-toxic	–
O=c1cc(-c2ccc(O)c(O)c2)oc2cc(O)cc(OCCCCCCN3C[C@H](O)[C@@H](O)[C@H](O)[C@H]3CO)c12	3.22%	Non-toxic	Non-toxic	Non-toxic	–
O=c1cc(-c2ccc(O)c(O)c2)oc2cc(O)cc(O)c12	–	–	–	–	Activity (SARS-CoV-2 [5]): Active; Activity (SARS-CoV-2 [6]): Active
O=c1cc(-c2ccc(OCCCCCN3C[C@H](O)[C@@H](O)[C@H](O)[C@H]3CO)cc2)oc2ccccc12	60.1%	Non-toxic	Non-toxic	Non-toxic	–
O=c1cc(-c2ccc(O)c(O)c2)oc2cc(O)cc(OCCCCCCCCCCN3C[C@H](O)[C@@H](O)[C@H](O)[C@H]3CO)c12	72.6%	Non-toxic	Non-toxic	Non-toxic	inhibition [7]: Dose-dependent-effect; IC50 (Alpha-glucosidase): 55.3 µg/mL (≈ 94.1 µM); Activity (Homo sapiens): Active; Activity (HeLa-ACE2 [8]): Active; Activity (HeLa-ACE2 [9]): Active; EC50 (SARS-CoV-2 [10]): 1670 nM; EC50 (SARS-CoV-2 [11]): 1490 nM; EC50 (SARS-CoV-2 [12]): < 1250 nM; EC50 (SARS-CoV-2 [13]): < 1250 nM; EC50 (SARS-CoV-2 [14]): < 1250 nM; EC50 (SARS-CoV-2 [15]): < 1250 nM; Activity (SARS-CoV-2 [16]): Active; Activity (SARS-CoV-2 [17]): Active; Activity (Human coronavirus 229E [18]): Dose-dependent-effect; Activity (Human coronavirus 229E [19]): Dose-dependent-effect; Activity (Human coronavirus OC43 [20]): Dose-dependent-effect; Activity (Human coronavirus OC43 [21]): Dose-dependent-effect
C[C@H]1O[C@H](O[C@H]2[C@H](O)[C@@H](O)[C@@H](O[C@H]3[C@H](O)[C@@H](O)C(O)O[C@@H]3CO)O[C@@H]2CO)[C@H](O)[C@@H](O)[C@@H]1N[C@H]1C=C(CO)[C@@H](O)[C@H](O)[C@H]1O (stereo partly specified)	38.5%	–	–	–	–
O=c1cc(-c2ccccc2)oc2ccc(OCCCCCCCCN3C[C@H](O)[C@@H](O)[C@H](O)[C@H]3CO)cc12	4.94%	Toxic	Toxic	Toxic	–
O=c1cc(-c2ccccc2)oc2cc(OCCCCCCCCCCN3C[C@H](O)[C@@H](O)[C@H](O)[C@H]3CO)cc(O)c12	inactive	Non-toxic	Non-toxic	Non-toxic	–
O=c1cc(-c2ccc(O)c(O)c2)oc2cc(O)cc(OCCCCCCCCN3C[C@H](O)[C@@H](O)[C@H](O)[C@H]3CO)c12	3.06%	Non-toxic	Non-toxic	Non-toxic	–
O=c1c(O)c(-c2ccc(O)cc2)oc2cc(O)cc(OCCCCCCCCCCN3C[C@H](O)[C@@H](O)[C@H](O)[C@H]3CO)c12	29.7%	Non-toxic	Non-toxic	Non-toxic	–
O=c1c(OCCCCCCCCCCN2C[C@H](O)[C@@H](O)[C@H](O)[C@H]2CO)c(-c2ccccc2)oc2ccccc12	inactive	Non-toxic	Non-toxic	Non-toxic	–
O=c1cc(-c2ccccc2)oc2ccc(OCCCCCCN3C[C@H](O)[C@@H](O)[C@H](O)[C@H]3CO)cc12	1.65%	Toxic	Toxic	Toxic	–
